From ChEMBL document CHEMBL1132313, “32-Indolyl ether derivatives of ascomycin: three-dimensional structures of complexes with FK506-binding protein” (J Med Chem, 1999) come the findings set out here.

Each structure is given as a SMILES string.

The nature of series [1]: Inhibition of calcineurin phosphatase activity by the compound.
A short description of series [2]: Relative binding affinity of compound for FK-506 binding protein (FKBP).
The test system of series [3] is T-cell. Briefly: Compound was evaluated for inhibition of T-cell proliferation induced by PMA-ionomycin. Type of series: functional.
The nature of series [4]: Off-rate of FK-506 binding protein (FKBP) drug complex from their complexes with calcineurin. Type of series: ADME.
Series [5] can be described thus: Relative binding affinity of compound for FK506 binding protein (FKBP).

Consider `CC[C@@H]1/C=C(/C)[C@@H](O)[C@@H](C)C[C@H](OC)[C@H]2O[C@@](O)(C(=O)C(=O)N3CCCC[C@H]3C(=O)O[C@H](/C(C)=C/[C@@H]3CC[C@@H](O)[C@H](OC)C3)[C@H](C)[C@@H](O)CC1=O)[C@H](C)C[C@@H]2OC`, for which the figures for the 50% inhibitory concentration (IC50) in series [1] and in series [2] were 2500 nM and 0.7 nM, respectively.

For the compound `CC[C@@H]1/C=C(/C)[C@@H](O)[C@H](C)C[C@H](OC)C2O[C@@](O)(C(=O)C(=O)N3CCCC[C@H]3C(=O)O[C@H](/C(C)=C/[C@@H]3CC[C@@H](Oc4ccc5c(ccn5C)c4)[C@H](OC)C3)[C@H](C)[C@@H](O)CC1=O)[C@H](C)C[C@@H]2OC`, the IC50 in series [1] came out at 79 nM. In series [3], this compound had a T-cell proliferation inhibition of 5.1 nM.

Consider `CC[C@@H]1/C=C(/C)C[C@H](C)C[C@H](OC)C2O[C@@](O)(C(=O)C(=O)N3CCCC[C@H]3C(=O)O[C@H](/C(C)=C/[C@@H]3CC[C@@H](Oc4ccc5c(ccn5CC)c4)[C@H](OC)C3)[C@H](C)[C@@H](O)CC1=O)[C@H](C)C[C@@H]2OC`, for which the figures for the half-inhibitory concentration (IC50) in series [1] and in series [2] were 8.21 nM and 27 nM, respectively. This compound returned a T-cell proliferation inhibition in series [3] of 0.78 nM.

Regarding `CC[C@@H]1/C=C(/C)C[C@H](C)C[C@H](OC)C2O[C@@](O)(C(=O)C(=O)N3CCCC[C@H]3C(=O)O[C@H](/C(C)=C/[C@@H]3CC[C@@H](Oc4ccc5c(ccn5CCO)c4)[C@H](OC)C3)[C@H](C)[C@@H](O)CC1=O)[C@H](C)C[C@@H]2OC`, the Off-rate in series [4] is 254 min. Besides, the IC50 was 11.4 nM in series [1] and 5.06 nM in series [2]. Besides, the T-cell proliferation inhibition in series [3] was 0.19 nM.

Turning to `C=CC[C@@H]1C=C(C)CC(C)C[C@H](OC)[C@H]2O[C@@](O)(C(=O)C(=O)N3CCCC[C@H]3C(=O)O[C@H](/C(C)=C/[C@@H]3CC[C@@H](O)[C@H](OC)C3)[C@H](C)[C@@H](O)CC1=O)[C@H](C)C[C@@H]2OC` (single isomer, unassigned) [TACROLIMUS ANHYDROUS], the Off-rate in series [4] was found to be 15.1 min. Besides, the concentration for half-maximal inhibition (IC50) in series [1] stood at 11.1 nM; in series [5] it was 0.39 nM. The compound further came in with a T-cell proliferation inhibition in series [3] of 0.3 nM.
